# How the values were obtained:
# [1] = tested on: human acute monocytic leukemia cell strain THP-1; test: LPS-stimulated TNFα production inhibition test using THP-1 cells; type: cell-based; details: LPS 2.5 ng/mL, TNFα by HTRF
# Method: By the THP-1 assay, influence of a test compound on the TNFα production induced by LPS stimulation can be evaluated. The THP-1 cells (ATCC, Cat. TIB-202) were inoculated on a 96-well plate at a density of 1 × 10^5 cells/160 µL/well, a test compound was added in a volume of 20 µL, and the plate was incubated at 37° C. for 1 hour in a 5% CO2 incubator. Then, LPS in a volume of 20 µL (final concentration 2.5 ng/mL, Sigma, Cat. L2630) was added, and the plate was further incubated for 4 hours. After the incubation, the plate was centrifuged, and 100 µL of the supernatant was taken from each well, and used for evaluation of the amount of TNFα using HTRF (Cisbio, Cat. 62TNFPEB). In the measurement of the amount of TNFα, the supernatant was diluted twice with the medium, and then added to wells of a 384-well plate in a volume of 10 µL, then anti-TNFα-cryptate (5 µL), and anti-TNFα-XL665 (5 µL) were added, and the plate was left standing overnight. The fluorescence intensity ratio for the wavelengths of 620 and 665 nm (620 nm/665 nm) was measured with a microplate reader, and the amount of TNFα in the supernatant was calculated by using a calibration curve. The TNFα production suppression ratio observed with no addition of LPS was defined to be 100%, the TNFα production suppression ratio observed with no addition of the test compound was defined to be 0%, and IC50 of the test compound was calculated by using the 4-parameter logistic model of the data analysis software XLfit (ID Business Solutions Ltd.).
# When the measurement was performed in multiplicate, the results are represented with average values. The values were rounded to the fourth decimal place.
# human IRAK-4 = human IRAK-4 (Homo sapiens (Human), UniProt Q9NWZ3); test: Measurement of human IRAK-4 inhibitory activity (TR-FRET); type: biochemical; details: 1 nM IRAK-4, 0.5 µM peptide substrate, 10 µM ATP, 23° C., 30 minutes
# Method: For the measurement of the activity of the human IRAK-4 (Invitrogen, Cat. PV3362), phosphorylation of the IRAK-4 peptide substrate (biotin-KKKKRFSFKKSFKC) by the enzyme in the presence of 10 µM ATP (Sigma-Aldrich, Cat. A7699) was measured by the TR-FRET method. The enzymatic reaction was performed in a reaction buffer containing 50 mM HEPES (pH 7.2), 1 mM DTT, 0.1 mM Na3VO4, 5 mM MgCl2, 1 mM MnCl2, and 0.1% bovine serum albumin. For the measurement of the IRAK-4 inhibitory activity, a test compound was added to the reaction buffer containing 1 nM IRAK-4, 0.5 µM peptide substrate, and 10 µM ATP, and the mixture was incubated at 23° C. for 30 minutes. Then, a detection solution containing an antibody labeled with europium cryptate (0.3 µg/mL, the antibody was prepared by using the IRAK-4 peptide substrate as the antigen), streptavidin-XL665 (2 µg/mL, CisBio, Cat. 610SAXLB), 50 mM HEPES (pH 7.2), 0.1% BSA, 120 mM KF, and 66.7 mM EDTA (all the concentrations of the reagents are final concentrations) was added to terminate the reaction, and then the mixture was further incubated at 23° C. for 60 minutes. Fluorescence intensity was measured at wavelengths of 665 nm and 620 nm with a microplate reader, and the enzymatic activity was calculated as the ratio of fluorescence intensities at 665 nm and 620 nm (665 nm/620 nm).
# When the measurement was performed in multiplicate, the results are represented with average values.
# Chain of human IRAK-4 (Q9NWZ3 whole entry): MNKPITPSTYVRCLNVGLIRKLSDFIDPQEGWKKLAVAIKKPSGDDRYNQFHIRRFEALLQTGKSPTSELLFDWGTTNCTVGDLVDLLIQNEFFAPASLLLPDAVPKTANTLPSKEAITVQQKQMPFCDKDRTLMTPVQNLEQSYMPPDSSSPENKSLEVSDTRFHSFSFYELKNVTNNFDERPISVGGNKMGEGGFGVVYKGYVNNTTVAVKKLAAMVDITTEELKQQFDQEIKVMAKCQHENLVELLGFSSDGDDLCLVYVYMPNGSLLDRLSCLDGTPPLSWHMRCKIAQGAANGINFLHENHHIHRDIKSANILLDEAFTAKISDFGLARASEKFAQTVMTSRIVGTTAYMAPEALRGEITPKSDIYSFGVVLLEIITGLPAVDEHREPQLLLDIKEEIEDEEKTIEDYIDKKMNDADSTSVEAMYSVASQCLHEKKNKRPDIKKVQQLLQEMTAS
Compound,"IC50 ([1]; Homo sapiens, THP-1, 4 h)",IC50 (human IRAK-4),IC50 ([1]; 4 hours)
CCCOCc1ncc(-c2ccc3ncc4nc3c2OCCCOC(=O)[C@@H]2C[C@H](CCN2C)N4)cn1 [a-01-15],0.081 µM,2.77 nM,–
CN1CC[C@H]2C[C@H]1C(=O)NCCCOc1c(-c3cnc(CO)nc3)ccc3ncc(nc13)N2 [a-01-32],0.165 µM,1.59 nM,–
Cc1ncc(-c2ccc3ncc4nc3c2OCCCNC(=O)[C@@H]2C[C@H](CCN2C)N4)cn1 [a-01-24],0.14 µM,2.48 nM,–
Cc1ncc(-c2ccc3ncc4cc3c2OCC2(CC2)COC(=O)[C@@H]2C[C@H](CCN2C)N4)cn1 [a-02-19],0.102 µM,3.9 nM,–
COCc1ncc(-c2ccc3ncc4nc3c2OCCCNC(=O)[C@@H]2C[C@H](CCN2C)N4)cn1 [a-01-45],0.227 µM,3.28 nM,–
CN1CC[C@H]2C[C@H]1C(=O)NCCCOc1c(-c3cnc(COCC4CC4)nc3)ccc3ncc(nc13)N2 [a-01-21],0.117 µM,2.29 nM,–
CN1CC[C@H]2C[C@H]1C(=O)NCCCOc1c(-c3cnsc3)ccc3ncc(nc13)N2 [a-01-14],0.08 µM,1.73 nM,–
"CCCOCc1ncc(-c2ccc3ncc4cc3c2OCCCNC(=O)[C@@H]2C[C@H](CCN2C)O4)cn1 [a-02-25, (3^2S,3^4S)-3^1-Methyl-1^6-(2-(propoxymethyl)pyrimidin-5-yl)-2,9-dioxa-5-aza-1 (3,5)-qunolina-3 (4,2)-piperidinacyclononaphan-4-one]",0.5 µM,–,–
CCCOCc1ncc(-c2ccc3ncc4nc3c2OCCC(C)NC(=O)[C@@H]2C[C@H](CCN2C)N4)cn1 (some centres unmarked) [a-01-43],0.237 µM,–,–
"CCCOCc1ncc(-c2ccc3ncc4nc3c2OCCCNC(=O)[C@@H]2C[C@H](CCN2C)N4)cn1 [a-01-07, (3^2S,3^4S)-3^1-Methyl-1^7-(2-(propoxymethyl)pyrimidin-5-yl)-9-oxa-2,5-diaza-1(2,8)-quinoxalina-3(4,2)-piperidinacyclononaphan-4-one]",0.057 µM,1.49 nM,–
CN1CC[C@H]2C[C@H]1C(=O)NCC(F)(F)COc1c(-c3cncnc3)ccc3ncc(nc13)N2 [a-01-08],0.063 µM,1.47 nM,–
CCCOCc1ncc(-c2ccc3ncc4nc3c2OCCCC2CCCN2C(=O)[C@@H]2C[C@H](CCN2C)N4)cn1 (some centres unmarked) [a-01-10],0.068 µM,43.4 nM,–
CCCOCc1ncc(-c2ccc3ncc4cc3c2OCC(F)CNC(=O)[C@@H]2C[C@H](CC(C)N2C)N4)cn1 (some centres unmarked) [a-02-01],0.012 µM,2.33 nM,–
CCCOCc1ncc(-c2ccc3ncc4nc3c2OCCCNC(=O)[C@@H]2C[C@H](CCN2CC)N4)cn1 [a-01-35],0.178 µM,2.84 nM,–
CCCOCc1ncc(-c2ccc3ncc4nc3c2OCC(F)COC(=O)[C@@H]2C[C@H](CCN2C)N4)cn1 (some centres unmarked) [a-01-06],0.05 µM,2.53 nM,–
"Cc1ncc(-c2ccc3ncc4cc3c2OCC(F)CNC(=O)C2(C)CC(CCN2C)N4)cn1 (centres unmarked) [a-02-23, 7-Fluoro-3^1,3^2-dimethyl-1^6-(2-methylpyrimidin-5-yl)-9-oxa-2,5-diaza-1 (3,5)-qunolina-3(4,2)-piperidinacyclononaphan-4-one]",0.716 µM,9.7 nM,–
Cc1ncc(-c2ccc3ncc4cc3c2OCCCOC(=O)[C@@H]2C[C@H](CCN2C)N4)cn1 [a-02-20],0.117 µM,3.21 nM,–
Cc1ncc(-c2ccc3ncc4cc3c2OCC(F)CNC(=O)[C@@H]2C[C@H](CCN2C)N4)cn1 (some centres unmarked) [a-02-16],0.065 µM,0.81 nM,–
CN1CC[C@H]2C[C@H]1C(=O)NCCCOc1c(-c3cncnc3)ccc3ncc(nc13)N2 [a-01-09],0.064 µM,1.28 nM,–
O=C1OCCCOc2c(-c3cnc(CO)nc3)ccc3ncc(cc23)N[C@H]2CCN[C@H]1C2 [a-02-12],0.047 µM,0.93 nM,–
"CCCOCc1ncc(-c2ccc3ncc4cc3c2CCCCNC(=O)[C@@H]2C[C@H](CCN2C)N4)cn1 [a-02-24, (3^2S,3^4S)-3^1-Methyl-1^6-(2-(propoxymethyl)pyrimidin-5-yl)-2,5-diaza-1(3,5)-qunolina-3(4,2)-piperidinacyclononaphan-4-one]",0.378 µM,13.2 nM,–
Cc1ncc(-c2ccc3ncc4cc3c2OCCCNC(=O)[C@@H]2C[C@H](CCN2C)N4)cn1 [a-02-21],0.135 µM,2.2 nM,–

Compound,"IC50 ([1]; Homo sapiens, THP-1, 4 h)",IC50 (human IRAK-4),IC50 ([1]; 4 hours)
CN1CCCOc2c(-c3cncnc3)ccc3ncc(nc23)N[C@H]2CCN(C)[C@@H](C2)C1=O [a-01-34],0.177 µM,4.19 nM,–
CCCOCc1ncc(-c2ccc3ncc4cc3c2OCCCOC(=O)[C@@H]2C[C@H](CCN2C)N4)cn1 [a-02-10],0.043 µM,2.96 nM,–
[2H]C([2H])([2H])N1CC[C@H]2C[C@H]1C(=O)NCC(F)COc1c(-c3cnc(COCCC)nc3)ccc3ncc(cc13)N2 (some centres unmarked) [a-02-06],0.024 µM,2 nM,–
CN1CCCOc2c(-c3cnc(CO)s3)ccc3ncc(nc23)N[C@H]2CCN(C)[C@@H](C2)C1=O [a-01-18],0.104 µM,1.84 nM,–
Cc1ncc(-c2ccc3ncc4nc3c2OCC(F)(F)CNC(=O)[C@@H]2C[C@H](CCN2C)N4)cn1 [a-01-28],0.149 µM,4.04 nM,–
CN1CC[C@H]2C[C@H]1C(=O)OCCCOc1c(-c3cnc(COCC(O)C4CC4)nc3)ccc3ncc(cc13)N2 (some centres unmarked) [a-02-04],0.023 µM,5.63 nM,–
CN1CC[C@H]2C[C@H]1C(=O)NCCCOc1c(-c3cnc(CO)s3)ccc3ncc(nc13)N2 [a-01-11],0.073 µM,0.79 nM,–
CCCOCc1ncc(-c2ccc3ncc4nc3c2OCC(F)CNC(=O)[C@@H]2C[C@H](CCN2C)N4)cn1 (some centres unmarked) [a-01-26],–,1.41 nM,0.142 µM
"Cc1ncc(-c2ccc3ncc4cc3c2/C=C/CCNC(=O)[C@@H]2CC(CC(C)N2C)N4)cn1 (stereo in doubt) [a-02-17, (3^2S,E)-3^1,3^6-Dimethyl-1^6-(2-methylpyrimidin-S-yl)-2,5-diaza-1 (3,5)-qunolina-3(4,2)-piperidinacyclononaphan-8-en-4-one]",0.066 µM,1.76 nM,–
CN1CC[C@H]2C[C@H]1C(=O)NCCCCOc1c(-c3cncnc3)ccc3ncc(nc13)N2 [a-01-30],0.162 µM,2.8 nM,–
CCCOCc1ncc(-c2ccc3ncc4nc3c2OCC2(CC2)CNC(=O)[C@@H]2C[C@H](CCN2C)N4)cn1 [a-01-04],0.048 µM,4.24 nM,–
Cc1ncc(-c2ccc3ncc4nc3c2OCCCN(C)C(=O)[C@@H]2C[C@H](CCN2C)N4)cn1 [a-01-42],0.246 µM,6.61 nM,–
CN1CC[C@H]2C[C@H]1C(=O)NCC1(CC1)COc1c(-c3cncnc3)ccc3ncc(nc13)N2 [a-01-03],0.045 µM,2.11 nM,–
CC1CNC(=O)[C@@H]2C[C@H](CCN2C)Nc2cnc3ccc(-c4cncnc4)c(c3n2)OC1 (some centres unmarked) [a-01-36],0.182 µM,8.86 nM,–
CCCOCc1ncc(-c2ccc3ncc4cc3c2OCCCOC(=O)[C@@H]2C[C@H](CCN2)N4)cn1 [a-02-05],0.023 µM,2.47 nM,–
CCCOCc1ncc(-c2ccc3ncc4cc3c2OCC(F)COC(=O)[C@@H]2C[C@H](CCN2C)N4)cn1 (some centres unmarked) [a-02-14],0.058 µM,6.46 nM,–
CCC(O)COCc1ncc(-c2ccc3ncc4cc3c2OCCCOC(=O)[C@@H]2C[C@H](CCN2C)N4)cn1 (some centres unmarked) [a-02-08],0.036 µM,5.73 nM,–
CN1CC[C@H]2C[C@H]1C(=O)NCC(C)(C)COc1c(-c3cncnc3)ccc3ncc(nc13)N2 [a-01-40],0.253 µM,14.8 nM,–
Cc1ncc(-c2ccc3ncc4cc3c2OCC(F)CNC(=O)[C@@H]2C[C@H](CC(C)N2C)N4)cn1 (some centres unmarked) [a-02-09],0.036 µM,0.86 nM,–
Cc1ncc(-c2ccc3ncc4nc3c2OCC(F)CNC(=O)[C@@H]2C[C@H](CCN2C)N4)cn1 (some centres unmarked) [a-01-41],–,10 nM,0.293 µM
Cc1ncc(-c2ccc3ncc4cc3c2CCCCNC(=O)[C@@H]2C[C@H](CC(C)N2C)N4)cn1 (some centres unmarked) [a-02-22],0.324 µM,–,–

# From patent US20230357271A1, “MACROCYCLIC COMPOUND” (Asahi Kasei Pharma Corporation, priority 2020, published 2023)
